Measurements published in ChEMBL document CHEMBL1671624, “Efficacy of quinoxaline-2-carboxylate 1,4-di-N-oxide derivatives in experimental tuberculosis” (Antimicrob Agents Chemother, 2008).
Values after ≈ are worked out from the molar mass of the structure shown.

How the values were obtained:
Type in all cases: functional
Settings in all cases: variant bovis BCG
[1] = test system: Mycobacterium tuberculosis; experiment: Antibacterial activity against wild-type Mycobacterium bovis BCG by microplate Alamar Blue assay
[2] = test system: Mycobacterium tuberculosis; experiment: Antibacterial activity against Mycobacterium bovis BCG harboring fgd gene by microplate Alamar Blue assay
[3] = test system: Mycobacterium tuberculosis; experiment: Antibacterial activity against Mycobacterium bovis BCG harboring moaA gene by microplate Alamar Blue assay
[4] = test system: Mycobacterium tuberculosis; experiment: Antibacterial activity against Mycobacterium bovis BCG harboring fbiC gene by microplate Alamar Blue assay
[5] = test system: Mycobacterium tuberculosis; experiment: Antibacterial activity against Mycobacterium bovis BCG harboring moaD gene by microplate Alamar Blue assay
[6] = test system: Mycobacterium tuberculosis; experiment: Antibacterial activity against Mycobacterium bovis BCG harboring pil8 gene by microplate Alamar Blue assay

| SMILES | MIC [1] | MIC [2] | MIC [3] | MIC [4] | MIC [5] | MIC [6] |
| --- | --- | --- | --- | --- | --- | --- |
| CCOC(=O)c1c(C)[n+]([O-])c2ccc(Cl)cc2[n+]1[O-] | 0.5 µM (≈ 0.141 µg/mL) | 0.5 µM (≈ 0.141 µg/mL) | 0.38 µM (≈ 0.107 µg/mL) | 0.71 µM (≈ 0.201 µg/mL) | 0.55 µM (≈ 0.155 µg/mL) | 0.72 µM (≈ 0.204 µg/mL) |
| O=C(Nc1ccc([N+](=O)[O-])cc1Cl)c1cc(Cl)ccc1O [NICLOSAMIDE] | 3.13 µM (≈ 1.02 µg/mL) | 1.61 µM (≈ 0.527 µg/mL) | 1.86 µM (≈ 0.608 µg/mL) | 1.57 µM (≈ 0.514 µg/mL) | 1.9 µM (≈ 0.622 µg/mL) | 1.87 µM (≈ 0.612 µg/mL) |
| O=[N+]([O-])c1cn2c(n1)OC[C@@H](OCc1ccc(OC(F)(F)F)cc1)C2 [PRETOMANID] | 0.12 µM (≈ 0.0431 µg/mL) | > 128 µM | > 128 µM | > 128 µM | > 128 µM | > 128 µM |
